Laboratory results as given in US10781215B2, “Heterobicyclic compounds useful as modulators of IL-12, IL-23 and/or IFNα responses” (BRISTOL-MYERS SQUIBB COMPANY, priority 2016, dated 2020).

Key:
[1] = tested on: IFNα stimulated Kit225 T cells (STAT-dependent luciferase reporter); assay: Kit225 T cell assay, IFNα stimulated STAT-dependent luciferase reporter; type: cell-based; conditions: 200 U/mL human recombinant IFNα, 5-6 hours
Procedure: (§1) Kit225 T cells with a stably-integrated STAT-dependent luciferase reporter were plated in RPMI (Gibco) containing 10% heat-inactivated FBS (Gibco) and 100 U/mL PenStrep (Gibco). The cells were then stimulated with either 20 ng/mL human recombinant IL-23 or 200 U/mL human recombinant IFNα (PBL InterferonSource) for 5-6 hours. Luciferase expression was measured using the STEADY-GLO® Luciferase Assay System (Promega) according to the manufacturer's instructions. Inhibition data were calculated by comparison to no inhibitor control wells for 0% inhibition and non-stimulated control wells for 100% inhibition. Dose response curves were generated to determine the concentration required to inhibit 50% of cellular response (IC50) as derived by non-linear regression analysis.

[2] = molecular target: T1, human Tyk2 (amino acids 575-869, His-tagged) (Homo sapiens, UniProt P29597); assay: Probe displacement assay (SPA format); type: binding; conditions: radiolabeled probe 40 nM, Tyk2 2.5 nM
T1 construct: made in house
T1 sequence (P29597 with tags, fused parts or gaps): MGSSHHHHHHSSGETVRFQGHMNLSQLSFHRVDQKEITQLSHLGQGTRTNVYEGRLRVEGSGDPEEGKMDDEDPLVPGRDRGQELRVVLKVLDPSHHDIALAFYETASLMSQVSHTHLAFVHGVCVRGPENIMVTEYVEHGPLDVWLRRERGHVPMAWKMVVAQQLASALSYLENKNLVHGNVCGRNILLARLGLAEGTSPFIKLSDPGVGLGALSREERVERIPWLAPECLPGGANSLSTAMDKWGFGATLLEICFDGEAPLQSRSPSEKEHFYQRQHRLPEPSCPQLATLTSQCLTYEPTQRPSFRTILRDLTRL
Procedure: Probe Displacement Assay (SPA Format) The probe displacement assay is conducted as follows: In a […], test compounds along with recombinantly expressed His-tagged protein corresponding to amino acids 575-869 of human Tyk2 (sequence shown below) at 2.5 nM, 40 nM ((R)—N-(1-(3-(8-methyl-5-(methylamino)-8H-imidazo [4,5-d]thiazolo [5,4-b]pyridin-2-yl)phenyl)ethyl)-2-([^3H]methylsulfonyl)benzamide) (preparation described below) and 80 μg/mL Copper His-Tag scintillation proximity assay beads (Perkin Elmer, Catalog # RPNQ0095) in 50 mM HEPES, pH 7.5, containing 100 μg/mL bovine serum albumin and 5% DMSO were incubated for 30 minutes at room temperature. The amount of radiolabeled probe (preparation described below) bound to Tyk2 was then quantified by scintillation counting, and the inhibition by the test compound calculated by comparison to wells either with no inhibitor (0% inhibition) or without Tyk2 (100% inhibition). The EC50 value is defined as the concentration of test compound required to inhibit radiolabeled probe binding by 50%. Probe Displacement Assay (HTRF Format)

[3] = tested on: IL-23 stimulated Kit225 T cells (STAT-dependent luciferase reporter); assay: Kit225 T cell assay, IL-23 stimulated STAT-dependent luciferase reporter; type: cell-based; conditions: 20 ng/mL human recombinant IL-23, 5-6 hours
Procedure: as §1

SMILES | IC50 [1] [µM] | EC50 [2] [µM] | IC50 [3] [µM]
Cc1nc2c(Nc3ccccc3S(C)(=O)=O)nc(Nc3ccc(F)cc3)nc2[nH]1 [Example 1, N2-(4-fluorophenyl)-8-methyl-N6-(2-(methylsulfonyl)phenyl)-9H-purine-2,6-diamine] | 4.26 | 0.27 | 1.41
Cc1nc2c(Nc3ccccc3S(C)(=O)=O)cc(Nc3ccc(F)cn3)nc2[nH]1 [Example 2, N5-(5-fluoropyridin-2-yl)-2-methyl-N7-(2-(methylsulfonyl)phenyl)-3H-imidazo[4,5-b]pyridine-5,7-diamine] | 0.088 | 0.013 | 0.162
Cc1nc2c(Nc3ccccc3S(C)(=O)=O)cc(Nc3cc(C#N)ccn3)nc2[nH]1 [Example 3, 2-({7-[(2-methanesulfonylphenyl)amino]-2-methyl-3H-imidazo[4,5-b]pyridin-5-yl}amino)pyridine-4-carbonitrile] | 0.19 | 0.012 | 0.275
Cc1cc(Nc2cc(Nc3ccccc3S(C)(=O)=O)c3nc(C)[nH]c3n2)nc(C)n1 [Example 4, 5-N-(2,6-dimethylpyrimidin-4-yl)-7-N-(2-methanesulfonylphenyl)-2-methyl-3H-imidazo[4,5-b]pyridine-5,7-diamine] | 0.196 | 0.012 | 0.347
Cc1nc2c(Nc3ccccc3S(C)(=O)=O)cc(Nc3ccc(N4CCOCC4)cn3)nc2[nH]1 [Example 5, 7-N-(2-methanesulfonylphenyl)-2-methyl-5-N-[5-(morpholin-4-yl)pyridin-2-yl]-3H-imidazo[4,5-b]pyridine-5,7-diamine] | 0.161 | 0.011 | 0.19
COc1cnc(Nc2cc(Nc3ccccc3S(C)(=O)=O)c3nc(C)[nH]c3n2)cn1 [Example 6, 7-N-(2-methanesulfonylphenyl)-5-N-(5-methoxypyrazin-2-yl)-2-methyl-3H-imidazo[4,5-b]pyridine-5,7-diamine] | 0.371 | 0.037 | 0.447
Cc1nc2c(Nc3ccccc3S(C)(=O)=O)cc(NC(=O)C3CC3)nc2[nH]1 [Example 7, N-{7-[(2-methanesulfonylphenyl)amino]-2-methyl-3H-imidazo[4,5-b]pyridin-5-yl}cyclopropanecarboxamide] | 0.285 | 0.014 | 0.718
Cc1nc2c(Nc3ccccc3S(C)(=O)=O)cc(Nc3ccc(C(=O)N4CCOCC4)cn3)nc2[nH]1 [Example 8, 7-N-(2-methanesulfonylphenyl)-2-methyl-5-N-[5-(morpholine-4-carbonyl)pyridin-2-yl]-3H-imidazo[4,5-b]pyridine-5,7-diamine] | 1.47 | 0.021 | 1.95
Cc1nc2c(Nc3ccccc3S(C)(=O)=O)cc(Nc3ccc(N4CCC(C)(O)CC4)cn3)nc2[nH]1 [Example 9, 1-[6-({7-[(2-methanesulfonylphenyl)amino]-2-methyl-3H-imidazo[4,5-b]pyridin-5-yl}amino)pyridin-3-yl]-4-methylpiperidin-4-ol] | 0.564 | 0.017 | 0.854
Cc1nc2c(Nc3ccccc3S(C)(=O)=O)cc(Nc3ccc(C(F)(F)F)cn3)nc2[nH]1 [Example 10, 7-N-(2-methanesulfonylphenyl)-2-methyl-5-N-[5-(trifluoromethyl)pyridin-2-yl]-3H-imidazo[4,5-b]pyridine-5,7-diamine] | 0.19 | 0.013 | 0.143
Cc1ccc(Nc2cc(Nc3ccccc3S(C)(=O)=O)c3nc(C)[nH]c3n2)nn1 [Example 11, 7-N-(2-methanesulfonylphenyl)-2-methyl-5-N-(6-methylpyridazin-3-yl)-3H-imidazo[4,5-b]pyridine-5,7-diamine] | 0.463 | 0.01 | 0.875

Now from value to compound:

IC50 [1] [µM] | EC50 [2] [µM] | IC50 [3] [µM] | SMILES
0.818 | 0.03 | 0.357 | Cc1nc2c(Nc3ccccc3S(C)(=O)=O)cc(Nc3cnc(C(F)(F)F)cn3)nc2[nH]1 [Example 12, 7-N-(2-methanesulfonylphenyl)-2-methyl-5-N-[5-(trifluoromethyl)pyrazin-2-yl]-3H-imidazo[4,5-b]pyridine-5,7-diamine]
0.19 | 0.009 | 0.185 | Cc1nc2c(Nc3ccccc3S(C)(=O)=O)cc(Nc3ccc(C#N)cn3)nc2[nH]1 [Example 13, 6-({7-[(2-methanesulfonylphenyl)amino]-2-methyl-3H-imidazo[4,5-b]pyridin-5-yl}amino)pyridine-3-carbonitrile]
6.08 | 0.011 | 7.86 | Cc1nc2c(Nc3ccccc3S(C)(=O)=O)cc(Nc3ccc(C(N)=O)cn3)nc2[nH]1 [Example 14, 6-({7-[(2-methanesulfonylphenyl)amino]-2-methyl-3H-imidazo[4,5-b]pyridin-5-yl}amino)pyridine-3-carboxamide]
0.207 | 0.031 | 0.183 | Cc1cnc(Nc2cc(Nc3ccccc3S(C)(=O)=O)c3nc(C)[nH]c3n2)cn1 [Example 15, 7-N-(2-methanesulfonylphenyl)-2-methyl-5-N-(5-methylpyrazin-2-yl)-3H-imidazo[4,5-b]pyridine-5,7-diamine]
0.128 | 0.014 | 0.09 | COc1ccc(Nc2cc(Nc3ccccc3S(C)(=O)=O)c3nc(C)[nH]c3n2)nc1 [Example 16, 7-N-(2-methanesulfonylphenyl)-5-N-(5-methoxypyridin-2-yl)-2-methyl-3H-imidazo[4,5-b]pyridine-5,7-diamine]
0.128 | 0.015 | 0.104 | Cc1nc2c(Nc3ccccc3S(C)(=O)=O)cc(Nc3cc(F)ccn3)nc2[nH]1 [Example 17, 5-N-(4-fluoropyridin-2-yl)-7-N-(2-methanesulfonylphenyl)-2-methyl-3H-imidazo[4,5-b]pyridine-5,7-diamine]
3.62 | 0.24 | 2.4 | COc1ccnc(Nc2cc(Nc3ccccc3S(C)(=O)=O)c3nc(C)[nH]c3n2)c1 [Example 18, 7-N-(2-methanesulfonylphenyl)-5-N-(4-methoxypyridin-2-yl)-2-methyl-3H-imidazo[4,5-b]pyridine-5,7-diamine]
0.732 | 0.019 | 0.48 | COc1ccc(Nc2cc(Nc3ccccc3S(C)(=O)=O)c3nc(C)[nH]c3n2)nn1 [Example 19, 7-N-(2-methanesulfonylphenyl)-5-N-(6-methoxypyridazin-3-yl)-2-methyl-3H-imidazo[4,5-b]pyridine-5,7-diamine]
0.264 | – | 0.37 | Cc1nc2c(Nc3ccccc3S(C)(=O)=O)cc(Nc3ccn(C)n3)nc2[nH]1 [Example 22, 7-N-(2-methanesulfonylphenyl)-2-methyl-5-N-(1-methyl-1H-pyrazol-3-yl)-3H-imidazo[4,5-b]pyridine-5,7-diamine]
1.22 | – | 1.96 | Cc1cc(Nc2cc(Nc3ccccc3C(N)=O)c3nc(C)[nH]c3n2)nc(C)n1 [Example 33, 2-({5-[(2,6-dimethylpyrimidin-4-yl)amino]-2-methyl-3H-imidazo[4,5-b]pyridin-7-yl}amino)benzamide]
5.12 | – | 4.38 | Cc1nc2c(Nc3ccccc3C(N)=O)cc(Nc3ccc(N4CCOCC4)cn3)nc2[nH]1 [Example 34, 2-[(2-methyl-5-{[5-(morpholin-4-yl)pyridin-2-yl]amino}-3H-imidazo[4,5-b]pyridin-7-yl)amino]benzamide]
